Measurements taken from patent publication US9028845B2, “Chimeric immunomodulatory compounds and methods of using the same-IV” (Dynavax Technologies Corporation, priority 2001, dated 2015).

Key:
PBMCs = test: Human PBMC proliferation assay (3H-thymidine incorporation); type: cell-based; conditions: Experiment A; for mean cpm: 2 μg/ml
human PBMCs = test: Human PBMC cytokine response assay (IFN-γ and IFN-α in cell-free medium by ELISA), with or without cPLGA; type: cell-based;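 for IFN-α (pg/ml) mean: 20 µg/mL compound for 24 hours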;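 for IFN-γ (pg/ml) mean: 20 µg/mL compound for 24 hours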
CD19+ B cells = test: Human B cell proliferation assay (3H-thymidine incorporation); conditions: for cpm1 / cpm2 / cpm3 / mean cpm / mean of both: B cells
[1] = Table 24, mean of donors 28234-28237
[2] = donor 28066, 20 ug/ml, 24 h, + PLGA = premixed with 100 μg/ml cPLGA
[3] = donor 28067, 20 ug/ml, 24 h, + PLGA = premixed with 100 μg/ml cPLGA
[4] = donor 28068, 20 ug/ml, 24 h, + PLGA = premixed with 100 μg/ml cPLGA
[5] = mean of donors 110, 112, 119, 120, Table 14
[6] = mean of donors 28065-28068, 20 ug/ml, 24 h, + PLGA = premixed with 100 μg/ml cPLGA
[7] = mean of donors 28185-28188, Table 15
[8] = Donor 146, 2 μg/ml, Experiment A
[9] = Donor 147, 2 μg/ml, Experiment A
[10] = donor 121, 2 μg/ml, Experiment B
[11] = donor 194, 2 μg/ml, Experiment B

(5′-TCGTCGA-3′)2-glycerol-5′-TCGTCGA-3′ [Compound C-28]
cpm1 (PBMCs; Donor 146, 2 μg/ml): 94977 cpm | cpm2 (PBMCs; Donor 146, 2 μg/ml): 121595 cpm | cpm3 (PBMCs; Donor 146, 2 μg/ml): 84977 cpm | mean cpm (PBMCs; Donor 146 mean): 100516 cpm | cpm1 (PBMCs; Donor 147, 2 μg/ml): 103916 cpm | cpm2 (PBMCs; Donor 147, 2 μg/ml): 91439 cpm | cpm3 (PBMCs; Donor 147, 2 μg/ml): 100905 cpm | mean cpm (PBMCs; Donor 147 mean): 98753 cpm | mean of both (PBMCs; mean of Donors 146 and 147, 2 μg/ml): 99635 cpm | IFN-α (human PBMCs; Table 9, donor 28089): 0 pg/mL | IFN-γ (human PBMCs; Table 9, donor 28089): 14 pg/mL | IFN-α (human PBMCs; Table 9, donor 28090): 64 pg/mL | IFN-γ (human PBMCs; Table 9, donor 28090): 15 pg/mL | IFN-α (human PBMCs; Table 9, donor 28098): 42 pg/mL | IFN-γ (human PBMCs; Table 9, donor 28098): 183 pg/mL | IFN-α (human PBMCs; Table 9, donor 28099): 67 pg/mL | IFN-γ (human PBMCs; Table 9, donor 28099): 45 pg/mL | IFN-α mean (human PBMCs; Table 9, mean of donors): 43 pg/mL | IFN-γ mean (human PBMCs; Table 9, mean of donors): 64 pg/mL | IFN-α (human PBMCs; Table 24, donor 28234): 16 pg/mL | IFN-γ (human PBMCs; Table 24, donor 28234): 10 pg/mL | IFN-α (human PBMCs; Table 24, donor 28235): 16 pg/mL | IFN-γ (human PBMCs; Table 24, donor 28235): 14 pg/mL | IFN-α (human PBMCs; Table 24, donor 28236): 16 pg/mL | IFN-γ (human PBMCs; Table 24, donor 28236): 88 pg/mL | IFN-α (human PBMCs; Table 24, donor 28237): 16 pg/mL | IFN-γ (human PBMCs; Table 24, donor 28237): 1229 pg/mL | IFN-α mean (human PBMCs; [1]): 16 pg/mL | IFN-γ mean (human PBMCs; [1]): 335 pg/mL | IFN-α (human PBMCs; donor 110, Table 14): 38 pg/mL | IFN-γ (human PBMCs; donor 110, Table 14): 5564 pg/mL | IFN-α (human PBMCs; donor 112, Table 14): 4 pg/mL | IFN-γ (human PBMCs; donor 112, Table 14): 52 pg/mL | IFN-α (human PBMCs; donor 119, Table 14): 56 pg/mL | IFN-γ (human PBMCs; donor 119, Table 14): 44 pg/mL | IFN-α (human PBMCs; donor 120, Table 14): 26 pg/mL | IFN-γ (human PBMCs; donor 120, Table 14): 60 pg/mL | IFN-γ (pg/ml) 28065 (human PBMCs; donor 28065 (high background), 20 ug/ml, 24 h, + PLGA = premixed with 100 μg/ml cPLGA, 1000 = outside assay limits): 1082 pg/mL | IFN-α (pg/ml) 28065 (human PBMCs; donor 28065, 20 ug/ml, 24 h, + PLGA = premixed with 100 μg/ml cPLGA): 3 pg/mL | IFN-α (pg/ml) 28066 (human PBMCs; [2]): 0 pg/mL | IFN-γ (pg/ml) 28066 (human PBMCs; [2]): 5 pg/mL | IFN-α (pg/ml) 28067 (human PBMCs; [3]): 29 pg/mL | IFN-γ (pg/ml) 28067 (human PBMCs; [3]): 42 pg/mL | IFN-α (pg/ml) 28068 (human PBMCs; [4]): 52 pg/mL | IFN-γ (pg/ml) 28068 (human PBMCs; [4]): 410 pg/mL | IFN-a (human PBMCs; donor 28185, Table 15): 14 pg/mL | IFN-g (human PBMCs; donor 28185, Table 15): 162 pg/mL | IFN-a (human PBMCs; donor 28186, Table 15): 4 pg/mL | IFN-g (human PBMCs; donor 28186, Table 15): 24 pg/mL | IFN-a (human PBMCs; donor 28187, Table 15): 0 pg/mL | IFN-g (human PBMCs; donor 28187, Table 15): 75 pg/mL | IFN-a (human PBMCs; donor 28188, Table 15): 4 pg/mL | IFN-g (human PBMCs; donor 28188, Table 15): 5 pg/mL | IFN-α (pg/ml) mean (human PBMCs; [5]): 31 pg/mL | IFN-γ (pg/ml) mean (human PBMCs; [5]): 1430 pg/mL | IFN-α (pg/ml) mean (human PBMCs; [6]): 21 pg/mL | IFN-γ (pg/ml) mean (human PBMCs; [6]): 385 pg/mL | IFN-a (pg/ml) mean (human PBMCs; [7]): 6 pg/mL | IFN-g (pg/ml) mean (human PBMCs; [7]): 66 pg/mL | IFN-a (pg/ml) ×2 (human PBMCs; mean ×2, Table 15): 11 pg/mL | IFN-g (pg/ml) ×4 (human PBMCs; mean ×4, Table 15): 266 pg/mL | IFN-α induction, in words (human PBMCs; used alone): HEG (C-94)>TEG (C-103)>C3 (C-104)=no linker (C-28) | B cell proliferation, in words (CD19+ B cells; 2 μg/ml, 48 h plus 8 h 3H-thymidine pulse): cause B cells to proliferate | cpm1 (CD19+ B cells; [8]): 50999 cpm | cpm2 (CD19+ B cells; [8]): 54630 cpm | cpm3 (CD19+ B cells; [8]): 46418 cpm | mean cpm (CD19+ B cells; Donor 146 mean, 2 μg/ml, Experiment A): 50682 cpm | cpm1 (CD19+ B cells; [9]): 65593 cpm | cpm2 (CD19+ B cells; [9]): 51040 cpm | cpm3 (CD19+ B cells; [9]): 50357 cpm | mean cpm (CD19+ B cells; Donor 147 mean, 2 μg/ml, Experiment A): 55663 cpm | cpm1 (CD19+ B cells; [10]): 35393 cpm | cpm2 (CD19+ B cells; [10]): 26954 cpm | cpm3 (CD19+ B cells; [10]): 26780 cpm | mean cpm (CD19+ B cells; donor 121 mean, 2 μg/ml, Experiment B): 29709 cpm | cpm1 (CD19+ B cells; [11]): 21588 cpm | cpm2 (CD19+ B cells; [11]): 13691 cpm | cpm3 (CD19+ B cells; [11]): 15691 cpm | mean cpm (CD19+ B cells; donor 194 mean, 2 μg/ml, Experiment B): 16990 cpm | mean of both (CD19+ B cells; mean of Donors 146 and 147, 2 μg/ml, Experiment A): 53173 cpm | mean of both (CD19+ B cells; mean of donors 121 and 194, 2 μg/ml, Experiment B): 23350 cpm

(5′-TCGATCG-3′-HEG)2-glycerol-HEG-5′-TCGATCG-3′ [Compound C-145]
IFN-α induction (FIG. 10), in words (human PBMCs; PBMCs from 8 donors, 20 μg/ml, 24 h): induce high levels of IFN-α | B cell proliferation (FIG. 11), in words (CD19+ B cells; purified human B cells, 5 μg/ml, 96 h): induce very little B cell proliferation
